The results in this text go back to patent US20230148214A1, “INDAZOLES AND AZAINDAZOLES AS LRRK2 INHIBITORS” (ESCAPE Bio, Inc., priority 2020, published 2023).

What is called IC50 is the point on the concentration scale where inhibition reaches its midpoint.

For this test, the target named is T1, LRRK2 WT (Homo sapiens, UniProt Q5S007).
T1 construct: purchased Life Technologies PR8604B
Put plainly: LRRK2 Kinase Activity Assay (LanthaScreen TR-FRET), wild type. Type of test: biochemical. The conditions noted are these: recombinant wild type LRRK2, 25 μM ATP, 400 nM LRRKtide, 60 min; class symbols. The method, then: LRRK2 kinase activity was measured using a LanthaScreen™ Kinase Activity Assay from ThermoFisher Scientific. Recombinant wild type or G2019S-LRRK2 protein (Life Technologies, PR8604B or PV4881, respectively), was incubated with a fluorescein-labeled peptide substrate called LRRKtide that is based upon ezrin/radixin/moesin (ERM) (Life Technologies, PV4901) in the presence of ATP and serially diluted compound. […] Compound-dependent inhibition of the TR-FRET signal was used to generate a concentration-response curve for IC50 determination.
After 60 min incubation at room temperature, the reaction was stopped by addition of 10 μL of 2×stop solution containing a final concentration of 2 nM anti-pERM antibody and 10 mM EDTA.

T1 sequence (Q5S007 whole entry): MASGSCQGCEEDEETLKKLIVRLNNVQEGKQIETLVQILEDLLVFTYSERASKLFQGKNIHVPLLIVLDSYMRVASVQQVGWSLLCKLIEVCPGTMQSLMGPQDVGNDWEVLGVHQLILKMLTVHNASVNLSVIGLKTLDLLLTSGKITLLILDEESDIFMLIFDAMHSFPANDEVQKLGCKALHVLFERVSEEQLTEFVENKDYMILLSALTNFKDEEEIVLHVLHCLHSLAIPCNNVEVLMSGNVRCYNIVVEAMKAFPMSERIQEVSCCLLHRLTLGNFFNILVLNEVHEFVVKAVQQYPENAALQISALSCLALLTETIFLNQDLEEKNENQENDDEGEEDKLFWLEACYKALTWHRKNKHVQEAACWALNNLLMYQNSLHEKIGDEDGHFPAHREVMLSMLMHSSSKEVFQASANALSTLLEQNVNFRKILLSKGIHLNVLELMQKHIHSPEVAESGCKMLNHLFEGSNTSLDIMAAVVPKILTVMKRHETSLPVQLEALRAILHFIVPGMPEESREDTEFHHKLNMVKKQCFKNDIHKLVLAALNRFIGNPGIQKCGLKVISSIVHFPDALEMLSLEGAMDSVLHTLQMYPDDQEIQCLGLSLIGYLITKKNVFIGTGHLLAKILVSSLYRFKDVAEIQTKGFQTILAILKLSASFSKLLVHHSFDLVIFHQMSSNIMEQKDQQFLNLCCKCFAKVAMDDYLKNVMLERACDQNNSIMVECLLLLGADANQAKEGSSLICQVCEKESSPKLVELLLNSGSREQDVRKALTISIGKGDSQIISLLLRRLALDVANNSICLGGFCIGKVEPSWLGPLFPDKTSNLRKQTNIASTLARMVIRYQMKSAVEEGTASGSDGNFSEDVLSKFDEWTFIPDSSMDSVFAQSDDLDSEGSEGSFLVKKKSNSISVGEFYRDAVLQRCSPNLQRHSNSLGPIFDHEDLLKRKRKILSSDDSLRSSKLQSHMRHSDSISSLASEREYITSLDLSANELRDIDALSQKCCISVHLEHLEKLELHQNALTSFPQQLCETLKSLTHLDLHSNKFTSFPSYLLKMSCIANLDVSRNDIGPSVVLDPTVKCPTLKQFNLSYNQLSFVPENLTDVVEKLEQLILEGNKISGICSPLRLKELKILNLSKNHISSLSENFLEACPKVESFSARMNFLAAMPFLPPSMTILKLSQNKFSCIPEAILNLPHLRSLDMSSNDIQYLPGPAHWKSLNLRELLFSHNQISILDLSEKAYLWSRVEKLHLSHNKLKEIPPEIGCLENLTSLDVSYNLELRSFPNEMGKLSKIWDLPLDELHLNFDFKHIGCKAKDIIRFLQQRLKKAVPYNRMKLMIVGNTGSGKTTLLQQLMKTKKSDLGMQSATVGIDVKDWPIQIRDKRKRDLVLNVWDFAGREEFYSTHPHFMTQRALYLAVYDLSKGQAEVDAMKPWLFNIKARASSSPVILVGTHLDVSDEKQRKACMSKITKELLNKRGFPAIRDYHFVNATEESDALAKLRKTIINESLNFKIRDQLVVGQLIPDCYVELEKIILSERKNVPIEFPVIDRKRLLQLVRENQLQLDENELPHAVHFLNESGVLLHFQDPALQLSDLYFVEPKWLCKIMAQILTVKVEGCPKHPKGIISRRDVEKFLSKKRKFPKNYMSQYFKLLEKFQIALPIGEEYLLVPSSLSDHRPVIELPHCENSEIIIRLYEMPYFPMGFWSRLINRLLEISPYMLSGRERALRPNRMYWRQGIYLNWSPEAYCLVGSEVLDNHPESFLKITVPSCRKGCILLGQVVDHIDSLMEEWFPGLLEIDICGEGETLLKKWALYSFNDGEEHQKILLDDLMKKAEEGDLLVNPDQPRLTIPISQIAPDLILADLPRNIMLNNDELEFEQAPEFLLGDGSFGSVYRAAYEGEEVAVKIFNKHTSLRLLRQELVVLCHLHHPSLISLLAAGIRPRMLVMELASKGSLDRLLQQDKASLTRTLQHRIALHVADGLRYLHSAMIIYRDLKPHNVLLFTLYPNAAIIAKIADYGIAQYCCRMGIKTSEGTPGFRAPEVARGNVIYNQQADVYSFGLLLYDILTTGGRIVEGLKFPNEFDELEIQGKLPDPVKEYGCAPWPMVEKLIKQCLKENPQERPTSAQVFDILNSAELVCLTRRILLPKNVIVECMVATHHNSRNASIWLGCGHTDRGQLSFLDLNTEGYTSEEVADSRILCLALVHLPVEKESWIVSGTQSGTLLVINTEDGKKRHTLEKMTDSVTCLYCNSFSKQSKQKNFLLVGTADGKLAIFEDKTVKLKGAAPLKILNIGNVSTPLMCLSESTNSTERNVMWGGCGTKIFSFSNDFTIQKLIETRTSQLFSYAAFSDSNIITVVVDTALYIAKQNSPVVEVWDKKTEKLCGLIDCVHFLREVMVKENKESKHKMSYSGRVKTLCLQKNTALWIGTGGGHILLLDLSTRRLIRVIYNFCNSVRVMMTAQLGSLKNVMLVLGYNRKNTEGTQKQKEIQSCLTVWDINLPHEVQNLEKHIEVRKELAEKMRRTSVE

For the compound `N#Cc1cc2c(nc1Cl)[C@@H](Oc1ccc3[nH]nc(-c4cnco4)c3c1)CCC2` (single isomer, unassigned) [177, enantiomer 2, 2-Chloro-8-((3-(oxazol-5-yl)-1H-indazol-5-yl)oxy)-5,6,7,8-tetrahydroquinoline-3-carbonitrile], the IC50 was less than 100 nM.

`N#Cc1cc2c(nc1Cl)[C@@H](Oc1ccc3[nH]nc(-c4cnoc4)c3c1)CCC2` (single isomer, unassigned) [178, enantiomer 2, 2-Chloro-8-[[3-(1,2-oxazol-4-yl)-1H-indazol-5-yl]oxy]-5,6,7,8-tetrahydroquinoline-3-carbonitrile]: the IC50 was less than 100 nM.

Consider `N#Cc1cc2c(cc1F)[C@@H](Oc1ccc3[nH]nc(-c4cnco4)c3c1)CCC2` (single isomer, unassigned) [180, enantiomer 2, 3-Fluoro-5-[[3-(1,3-oxazol-5-yl)-1H-indazol-5-yl]oxy]-5,6,7,8-tetrahydronaphthalene-2-carbonitrile], for which the IC50 is less than 100 nM.

With `N#Cc1cnc2c(n1)CC[C@@H]2Oc1ccc2[nH]nc(-c3cnco3)c2c1` (single isomer, unassigned) [182, enantiomer 2, 5-((3-(Oxazol-5-yl)-1H-indazol-5-yl)oxy)-6,7-dihydro-5H-cyclopenta[b]pyrazine-2-carbonitrile], the concentration for half-maximal inhibition (IC50) was less than 100 nM.

With `N#Cc1cnc2c(c1)CCC[C@@H]2Oc1ccc2[nH]nc(-c3cnoc3)c2c1` (single isomer, unassigned) [Example 2, enantiomer 2, 8-((3-(Isoxazol-4-yl)-1H-indazol-5-yl)oxy)-5,6,7,8-tetrahydroquinoline-3-carbonitrile], the IC50 was less than 100 nM.

As to `N#Cc1ccc2c(c1)CCC2Oc1ccc2[nH]nc(-c3cnco3)c2c1` (single isomer, unassigned) [Example 3, enantiomer 2, 1-((3-(Oxazol-5-yl)-1H-indazol-5-yl)oxy)-2,3-dihydro-1H-indene-5-carbonitrile], the IC50 is less than 100 nM.

In the case of `N#Cc1ccc2c(c1)CC[C@@H]2Oc1ccc2[nH]nc(-c3cnn(C(F)F)c3)c2c1` (single isomer, unassigned) [Example 4, enantiomer 2, 1-((3-(1-(Difluoromethyl)-1H-pyrazol-4-yl)-1H-indazol-5-yl)oxy)-2,3-dihydro-1H-indene-5-carbonitrile], the IC50 is less than 100 nM.

For `N#Cc1ccc2c(c1)CC[C@@H]2Oc1ccc2[nH]nc(-c3cnoc3)c2c1` (single isomer, unassigned) [Example 5, enantiomer 2, 1-((3-(Isoxazol-4-yl)-1H-indazol-5-yl)oxy)-2,3-dihydro-1H-indene-5-carbonitrile], the IC50 is less than 100 nM.

Take `N#Cc1ccc2c(c1)CC[C@@H]2Nc1ccc2[nH]nc(-c3cnoc3)c2c1` (single isomer, unassigned) [Example 8, enantiomer 2, 1-((3-(Isoxazol-4-yl)-1H-indazol-5-yl)amino)-2,3-dihydro-1H-indene-5-carbonitrile]: the IC50 is less than 100 nM.

As to `N#Cc1ccc2c(c1)CC[C@@H]2Nc1ccc2[nH]nc(-c3cnco3)c2c1` (single isomer, unassigned) [Example 9, enantiomer 2, 1-((3-(Oxazol-5-yl)-1H-indazol-5-yl)amino)-2,3-dihydro-1H-indene-5-carbonitrile], the IC50 is less than 100 nM.

Regarding `N#Cc1ccc2c(c1)CC[C@@H]2Nc1ccc2[nH]nc(-c3ccoc3)c2c1` (single isomer, unassigned) [Example 11, enantiomer 2, 1-((3-(Furan-3-yl)-1H-indazol-5-yl)amino)-2,3-dihydro-1H-indene-5-carbonitrile], the IC50 was less than 100 nM.

For the compound `N#Cc1ccc2c(c1)CC[C@@H]2Nc1ccc2[nH]nc(-c3cnn(C(F)F)c3)c2c1` (single isomer, unassigned) [Example 12, enantiomer 2, 1-((3-(1-(Difluoromethyl)-1H-pyrazol-4-yl)-1H-indazol-5-yl)amino)-2,3-dihydro-1H-indene-5-carbonitrile], the IC50 is less than 100 nM.
